Data on one sequence can be found in patent US5395609A, “Synthetic peptides for use in tumor detection” (Antisoma Limited, priority 1989, dated 1995).

No end group written: not given here.

For the test, the system named is metastatic lesions of pelvic melanoma. Put plainly: Imaging of metastatic lesions in a human patient with pelvic melanoma after intravenous radiolabelled peptide. Format: in vivo. As to the method: 100 micrograms of the peptide […] labelled with technetium were administered intravenously as one single dose to a human patient with a pelvic melanoma which has metastrasised to the liver.

For the sequence “RGDSCRGDSY labelled with technetium: peptide RGDSCRGDSY labelled with technetium (also: labelled with technetium)”, the “uptake of radiolabelled peptide at metastatic lesions, early view” value (100 micrograms i.v. single dose, FIG. 2) is recorded as “various sites of uptake (arrow) which correspond to the known metastatic lesions”. In addition, for the setting “100 micrograms i.v., one hour later, FIG. 3”, the “retention of radiolabelled peptide by metastatic lesions” value is “retention of the radiolabelled peptide by the metastatic lesions”.
